Active and inactive are the calls of the source. The calls are words filed in the database; no cut-off is given here.
Tested on: Mycobacterium tuberculosis
Experiment: Antimicrobial activity against Mycobacterium tuberculosis H37Ra ATCC 25177 harboring pSMT1 luciferase reporter plasmid up to 64 uM after 7 days by luminometric method
Type: functional

Row | SMILES | Activity
1 | Cc1cn(C2CCN(C(=O)c3ccc(Oc4ccccc4)cc3)CC2)c(=O)[nH]c1=O | inactive
2 | Cc1cn(C2CCN(Cc3ccc(C#N)cc3)CC2)c(=O)[nH]c1=O | inactive
3 | Cc1cn(C2CCN(Cc3cc(Oc4ccccc4)c4ccc(Cl)cc4n3)CC2)c(=O)[nH]c1=O | inactive
4 | Cc1cn(C2CCN(Cc3ccc(N(C)C)cc3)CC2)c(=O)[nH]c1=O | inactive
5 | Cc1cn(C2CCN(Cc3cccc(C(=O)O)n3)CC2)c(=O)[nH]c1=O | inactive
6 | Cc1cn(C2CCN(Cc3ccnc4ccccc34)CC2)c(=O)[nH]c1=O | inactive
7 | Cc1cn(C2CCN(Cc3ccoc3)CC2)c(=O)[nH]c1=O | inactive
8 | Cc1ccc(CN2CCC(n3cc(C)c(=O)[nH]c3=O)CC2)cc1 | inactive
9 | Cc1cn(C2CCN(Cc3nccc4ccccc34)CC2)c(=O)[nH]c1=O | inactive
10 | Cc1cn(C2CN(Cc3ccc(Oc4ccccc4)cc3)C2)c(=O)[nH]c1=O | inactive
11 | Cc1cn(C2CCN(Cc3cccnc3)CC2)c(=O)[nH]c1=O | inactive
12 | Cc1cn(C2CCN(CCc3cccc(Oc4ccccc4)c3)CC2)c(=O)[nH]c1=O | inactive
13 | Cc1cn(C2CCN(Cc3ccc(Cl)cc3)CC2)c(=O)[nH]c1=O | inactive
14 | Cc1cn(C2CN(Cc3cccc(Oc4ccccc4)c3)C2)c(=O)[nH]c1=O | inactive
15 | Cc1cn(CC2CCN(Cc3cccc(Oc4ccccc4)c3)CC2)c(=O)[nH]c1=O | inactive
16 | Cc1cn(C2CCN(Cc3cccc(Oc4ccccc4)c3)CC2)c(=O)[nH]c1=O | inactive
17 | Cc1cn(C2CCN(Cc3cc4ccccc4o3)CC2)c(=O)[nH]c1=O | inactive
18 | Cc1cn(C2CCN(Cc3cc4ccccc4cn3)CC2)c(=O)[nH]c1=O | inactive

Row | SMILES | Activity
19 | Cc1cn(C2CCN(Cc3ccc(Oc4ccccc4)cc3)CC2)c(=O)[nH]c1=O | inactive
20 | Cc1cn(C2CN(CCCc3cccc(Oc4ccccc4)c3)C2)c(=O)[nH]c1=O | inactive
21 | Cc1cccc(CN2CCC(n3cc(C)c(=O)[nH]c3=O)CC2)c1 | inactive
22 | Cc1cn(C2CCN(Cc3cccc4ccccc34)CC2)c(=O)[nH]c1=O | inactive
23 | Cc1cn(C2CCN(Cc3ccccc3)CC2)c(=O)[nH]c1=O | inactive
24 | Cc1cn(C2CCN(C(=O)c3cccc(Oc4ccccc4)c3)CC2)c(=O)[nH]c1=O | inactive
25 | Cc1cn(C2CCN(Cc3ccccn3)CC2)c(=O)[nH]c1=O | inactive
26 | COc1ccc(CN2CCC(n3cc(C)c(=O)[nH]c3=O)CC2)cc1 | inactive
27 | Cc1cn(CC2CCN(Cc3ccc(Oc4ccccc4)cc3)CC2)c(=O)[nH]c1=O | inactive
28 | Cc1cn(C2CCN(Cc3ccco3)CC2)c(=O)[nH]c1=O | inactive
29 | Cc1cn(C2CCN(CC3CCCCC3)CC2)c(=O)[nH]c1=O | inactive
30 | Cc1cn(C2CCN(Cc3ccncc3)CC2)c(=O)[nH]c1=O | inactive
31 | Cc1cn(C2CCN(Cc3ccc4ccccc4c3)CC2)c(=O)[nH]c1=O | inactive
32 | Cc1cn(C2CCN(Cc3cncc4ccccc34)CC2)c(=O)[nH]c1=O | inactive
33 | Cc1cn(C2CN(CCc3cccc(Oc4ccccc4)c3)C2)c(=O)[nH]c1=O | inactive
34 | Cc1cn(C2CCN(Cc3cnc4ccccc4c3)CC2)c(=O)[nH]c1=O | inactive
35 | Cc1cn(C2CCN(Cc3ccc(C(=O)O)cc3)CC2)c(=O)[nH]c1=O | inactive
